We go through three compounds from ChEMBL document CHEMBL2073865 (Drug Metab Dispos, 2004).

Holding throughout (assay type): functional, cell-based
Series [1] concerns the target T1, ATP-dependent translocase ABCB1 (Homo sapiens, UniProt P08183). Briefly: TP_TRANSPORTER: transepithelial transport of erythromycin in the presence of 3-Carboxy-4-methyl-5-propyl-2-furanpropanoic acid at 500uM and 1mM in MDR1-expressing MDCK cells. Particulars: dog.
Series [2] deals with T1, ATP-dependent translocase ABCB1. Briefly: TP_TRANSPORTER: transepithelial transport of erythromycin in the presence of Hippurate at 2mM in MDR1-expressing MDCK cells. Particulars: dog, 2000 µM.
Series [3] has the same target. Briefly: TP_TRANSPORTER: transepithelial transport of erythromycin in the presence of Indoxyl sulfate at 1mM in MDR1-expressing MDCK cells. Particulars: dog, 1000 µM.

Structures can show the parent of a compound that is named as a salt.

T1 sequence (P08183 whole entry): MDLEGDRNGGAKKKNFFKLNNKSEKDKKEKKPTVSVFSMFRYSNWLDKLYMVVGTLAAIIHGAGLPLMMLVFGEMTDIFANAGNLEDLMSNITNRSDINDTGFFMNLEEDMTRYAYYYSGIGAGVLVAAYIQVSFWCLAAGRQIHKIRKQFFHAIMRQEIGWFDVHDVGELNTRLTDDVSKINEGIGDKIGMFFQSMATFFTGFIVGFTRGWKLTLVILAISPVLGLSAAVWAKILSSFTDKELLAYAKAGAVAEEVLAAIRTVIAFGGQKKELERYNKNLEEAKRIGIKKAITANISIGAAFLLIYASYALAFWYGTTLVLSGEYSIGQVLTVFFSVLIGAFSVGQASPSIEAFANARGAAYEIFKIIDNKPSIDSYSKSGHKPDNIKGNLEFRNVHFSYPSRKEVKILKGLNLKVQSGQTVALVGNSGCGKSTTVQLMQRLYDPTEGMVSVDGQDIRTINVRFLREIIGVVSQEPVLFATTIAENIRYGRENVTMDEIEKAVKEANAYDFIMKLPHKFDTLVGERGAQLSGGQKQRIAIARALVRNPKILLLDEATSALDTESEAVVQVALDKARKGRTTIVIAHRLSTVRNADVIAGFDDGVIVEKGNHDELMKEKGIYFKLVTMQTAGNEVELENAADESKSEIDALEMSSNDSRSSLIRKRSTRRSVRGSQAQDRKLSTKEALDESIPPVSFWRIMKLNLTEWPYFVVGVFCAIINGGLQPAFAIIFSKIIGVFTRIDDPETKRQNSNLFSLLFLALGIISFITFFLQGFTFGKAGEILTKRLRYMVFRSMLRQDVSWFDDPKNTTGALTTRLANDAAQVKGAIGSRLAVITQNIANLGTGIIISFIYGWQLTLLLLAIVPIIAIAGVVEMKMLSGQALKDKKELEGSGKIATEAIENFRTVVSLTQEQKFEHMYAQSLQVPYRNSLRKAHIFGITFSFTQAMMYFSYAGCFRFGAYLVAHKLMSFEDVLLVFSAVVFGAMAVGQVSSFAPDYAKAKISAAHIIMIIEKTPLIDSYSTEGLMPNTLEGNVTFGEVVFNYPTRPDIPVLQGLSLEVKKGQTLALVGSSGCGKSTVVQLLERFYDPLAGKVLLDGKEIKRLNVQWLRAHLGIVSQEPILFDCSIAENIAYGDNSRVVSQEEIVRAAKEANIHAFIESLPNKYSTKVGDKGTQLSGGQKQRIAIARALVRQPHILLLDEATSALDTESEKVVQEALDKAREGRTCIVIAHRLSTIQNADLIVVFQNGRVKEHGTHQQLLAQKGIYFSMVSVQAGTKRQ

For the compound `CCCc1oc(CCC(=O)O)c(C(=O)O)c1C`, the Activity result in series [1] was “is not an inhibitor [-]”.
On to `O=C(O)CNC(=O)c1ccccc1` [HIPPURIC ACID], for which, in series [2], the Activity entry is “is not an inhibitor [-]”.
For `O=S(=O)(O)Oc1c[nH]c2ccccc12` [INDOXYL SULFATE], the Activity result in series [3] is “is not an inhibitor [-]”.
